pIC50: −log10 of the molar value. The source made the active and inactive calls. No cut-off for these calls is given here.
How the values were obtained:
[1] = Antifibrotic activity against rat HSC-T6 cells assessed as inhibition of proliferation after 48 hrs by BrdU incorporation assay; format: functional, cell-based; conditions: HSC-T6, 48 h
[2] = Inhibition of rat HSC-T6 cell proliferation at 100 ug/ml after 48 hrs by BrdU incorporation assay; format: functional; conditions: HSC-T6, 48 h
HSC-T6 [3] = assay: Induction of cell death in rat HSC-T6 cells assessed as decrease in cell viability after 48 hrs by MTT assay; format: functional, cell-based
HSC-T6 [4] = assay: Decrease in collagen content in rat HSC-T6 cells at 10 to 100 uM after 48 hrs by sirius red-based colorimetric assay; format: functional, cell-based
[5] = Cytotoxicity against rat HSC-T6 cells assessed as decrease in LDH release; format: cell-based
HSC-T6 [6] = assay: Antiproliferative activity against rat HSC-T6 cells at 10 to 100 ug/ml after 24 to 48 hrs by BrdU incorporation assay; format: functional, cell-based
HSC-T6 [7] = assay: Induction of cell death in rat HSC-T6 cells assessed as decrease in cell viability at 100 uM by MTT assay; format: functional, cell-based; conditions: TDE = time-dependent effect
[8] = Induction of apoptosis in rat HSC-T6 cells assessed as increase in caspase-3/7 activity at 10 to 100 ug/ml after 24 to 48 hrs; format: functional

OC[C@@]1(O)CO[C@@H](OC[C@H]2O[C@@H](O[C@H](CCCCc3ccc(O)cc3)CCc3ccc(O)cc3)[C@H](O)[C@@H](O)[C@@H]2O)[C@@H]1O
pIC50 [1]: 4.41 | inhibition at 100 µg/mL [2]: 22.7%

C=C(C)[C@@H]1CC[C@]2(CO)CC[C@]3(C)[C@H](CC[C@@H]4[C@@]5(C)C[C@@H](O)[C@H](OC(=O)/C=C/c6ccc(O)c(O)c6)C(C)(C)[C@@H]5CC[C@]43C)[C@@H]12
Activity (HSC-T6 [3]): Dose-dependent effect | Activity (HSC-T6 [4]): Dose-dependent effect | pIC50 [1]: 4.62 | Activity [5]: Non-toxic | Activity (HSC-T6 [6]): Active | Activity (HSC-T6 [7]): tde | Activity [8]: 150%

O=C(/C=C/CCc1ccc(O)c(O)c1)CCc1ccc(O)c(O)c1 [DEHYDROHIRSUTANONOL]
Activity (HSC-T6 [3]): Dose-dependent effect | Activity (HSC-T6 [4]): Dose-dependent effect | pIC50 [1]: 4.85 | Activity [5]: Non-toxic | Activity (HSC-T6 [6]): Active | Activity (HSC-T6 [7]): tde | Activity [8]: 150%

O=C(O[C@@H]1Cc2c(O)cc(O)cc2O[C@@H]1c1cc(O)c(O)c(O)c1)c1cc(O)c(O)c(O)c1 [EPIGALOCATECHIN GALLATE]
pIC50 [1]: 5.00
